How the values were obtained:
BDNF = tested on: BDNF; set-up: method as in PMID 21343524; conditions: rat traumatic brain injury models; cited from earlier work
C57BL/6J mice [1] = test: two-day water maze, scopolamine induced memory impairment; type: in vivo; conditions: scopolamine 1 mg/kg i.p.; J147 200 ppm, donepezil 20 ppm in food for two weeks
Method: (§1) A total of 60 male mice aged eight weeks were housed 4 per cage and were divided into five groups with 12 mice per group. Treatments were administered in the food (TestDiet® 5015, Richmond, IN, USA) for a period of two weeks before commencement of behavioral testing. […] Following two weeks of treatment, memory impairment was induced by intraperitoneal (i.p.) injection of scopolamine (1 mg/kg) 30 minutes prior to each of the following behavioral tests: Y-maze, probe trial of the water maze and contextual and cued fear conditioning. Mice were allowed to rest for two days between each behavior test. All mice received scopolamine except for one of the control groups, which received saline as a control. Mice were sacrificed 24 hours after the last behavioral test for tissue harvesting.
Spatial memory was determined using the two-day water maze in 23-month-old huAPPswe/PS1 transgenic mice fed J147 at 200 ppm in food for the previous three months. The protocol was adapted from a publication by Gulinello and colleagues. Water temperature remained at 27°C throughout the experiment. […] The time it took each mouse to find the hidden platform was measured as escape latency. […] All trials were recorded using the EthoVision Software and statistics were computed using GraphPad Instat software (GraphPad Software, San Diego, CA, USA).

C57BL/6J mice [2] = test: Y-maze, scopolamine induced memory impairment; type: in vivo; conditions: scopolamine 1 mg/kg i.p.; J147 200 ppm, donepezil 20 ppm in food for two weeks
Method: as §1
Spontaneous alternation, the tendency to alternate free choices in a Y-maze (three arms), is a model for studying short term working memory in mice. Mice were injected with 1 mg/kg of scopolamine or saline 30 minutes prior to testing. Then each mouse was placed in the center of the Y and arm entries were recorded by video camera and the order of entries were recorded for the first 15 entries. Spontaneous alternations are defined as consecutive triplets of different arm choices.

C57BL/6J mice [3] = test: fear conditioning, scopolamine induced memory impairment; type: in vivo; conditions: scopolamine 1 mg/kg i.p.; J147 200 ppm, donepezil 20 ppm in food; vs scopolamine
Method: as §1
Fear conditioning to either a cue or a context represents a form of associative learning. The read-out that is measured in contextual and cued fear conditioning is a freezing response that occurs following the pairing of an unconditioned stimulus (US), such as a foot shock, with a conditioned stimulus (CS), such as a particular context or cue (tone). The mouse will freeze if it remembers and associates that environment with the aversive stimulus. The hippocampus and the amygdala are required for fear memory where the hippocampus is involved in the formation and retrieval of context fear associations and the amygdala is involved in conditioning and recall of associations to contextual and discrete cues. This assay used fear conditioning chambers from Med Associates Inc. with Video Freeze Software (Med Associates Inc, St. Albans, VT, USA). On Day 1, mice were trained by allowing them to explore the chamber for 120 sec, mice were then presented with a 30-sec tone (2 kHz with 85 dB intensity) immediately followed by a 2-sec foot shock (0.7 mA). The tone-shock pairing was repeated following a 30-sec interval and the mice were again allowed to explore for 120 sec before removing them from the chamber. On Day 2, contextual memory, which requires a functioning hippocampus, was tested by placing the mice in the chambers and allowing them to explore for the same length of time as the previous day but without the tone and the shock. On Day 3, cued or emotional memory was tested, which relies on both hippocampus and amygdala. […] On Day 2, the time spent freezing is measured over the entire time in the chamber. […] The percentage of time spent freezing by each mouse is averaged per group and then groups can be compared and P-values calculated to determine statistical significance. On Day 3, the percentage of time spent freezing during the two tones is averaged per group, and then groups can be compared and P-values calculated to determine statistical significance. […]

| Structure (SMILES) | BDNF levels (BDNF) | spatial memory (time to find hidden platform) (C57BL/6J mice [1]) | short-term working memory (spontaneous alternations, Y maze) (C57BL/6J mice [2]) | contextual memory (freezing Day 2) (C57BL/6J mice [3]) | cued memory (freezing in response to the tone, Day 3) (C57BL/6J mice [3]) |
| --- | --- | --- | --- | --- | --- |
| COc1cc(/C=C/c2cc(/C=C/c3ccc(O)c(OC)c3)n(-c3ccccc3)n2)ccc1O [CNB-001] | increases BDNF levels | – | – | – | – |
| COc1cc2c(cc1OC)C(=O)C(CC1CCN(Cc3ccccc3)CC1)C2 (centres unmarked) [donepezil, reference compound] | – | failed to rescue the deficit | improve short-term working memory | did not improve memory | neither effect was significant |

Reference: paper PMC3706879, “The neurotrophic compound J147 reverses cognitive impairment in aged Alzheimer's disease mice” (Alzheimer's Research & Therapy, 2013)
